Laboratory results as given in US4564684A, “3-Amino-1-phenyl-2-pyrazolines” (priority 1980, dated 1986).
Structures can show the parent of a compound that is named as a salt.

Key:
cyclo-oxygenase = assay: Inhibition of cyclo-oxygenase in an enzyme assay according to the method of Blackwell and Flower; assay type: biochemical; details: Table I, read-out: ED50 for inhibition of cyclo-oxygenase
lipoxygenase = assay: Inhibition of lipoxygenase in an enzyme assay according to the method of Blackwell and Flower; assay type: biochemical; details: Table I, read-out: ED50 for inhibition of lipoxygenase

Row | Structure (SMILES) | IC50 (cyclo-oxygenase) | IC50 (lipoxygenase)
1 | CCCNC1=NN(c2cccc(C(F)(F)F)c2)CC1 [Example 3, 3-propylamino-1-(3-trifluoromethylphenyl)-2-pyrazoline] | < 300 nM | < 300 nM
2 | CNC1=NN(c2cccc(C(F)(F)F)c2)CC1 [Example 1, 3-methylamino-1-(3-trifluoromethylphenyl)-2-pyrazoline] | ~300 nM | ~300 nM
3 | CCNC1=NN(c2cccc(C(F)(F)F)c2)CC1 [Example 2, 3-ethylamino-1-(3-trifluoromethylphenyl)-2-pyrazoline] | ~800 nM | ~700 nM

Continued, values first:

Row | IC50 (cyclo-oxygenase) | IC50 (lipoxygenase) | Structure (SMILES)
4 | ~300 nM | ~300 nM | FC(F)(F)c1cccc(N2CCC(NCc3ccccc3)=N2)c1 [Example 5, 3-benzylamino-1-(3-trifluoromethylphenyl)-2-pyrazoline hydrochloride]
5 | < 300 nM | < 300 nM | CCCCNC1=NN(c2cccc(C(F)(F)F)c2)CC1 [Example 4, 3-butylamino-1-(3-trifluoromethylphenyl)-2-pyrazoline]
